Test results published in patent US20080207537A1, “Topical Ungual Formulations” (priority 2005, published 2008).

Experiments:
[1] = 14C mannitol nail penetration study (nail diffusion cell); assay type: in vitro ADME, human; conditions: single penetration enhancer
Protocol: The single penetration enhancers were made up in the appropriate solvent and spiked with ^14C mannitol (10 μl of the stock ^14C mannitol). When more than one penetration enhancer was applied to the nails, only the last penetration enhancer was spiked with ^14C mannitol prior to nail application. ^14C mannitol with no penetration enhancer was used as a control.
Pre-calibrated nail diffusion cells were assembled with full thickness human nail. The receiver fluid, which consisted of a 20% ethanol/water mixture, was put into the receiver well up to the etched mark on the side arm. A magnetic follower was inserted and the cells were then placed on a magnetic stirrer in a water bath maintained at 32° C. Cells were checked for leakage and air bubbles. […] This was to ensure that no cells contained any residual radioactivity and these readings were also taken as the background for each cell. […]
After taking the background reading (described in the section above) 50 μl of ^3H water (ca. 18000 dpm) was placed on top of the nail in the assembled nail diffusion cell, using a pre-calibrated Gilson pipette. […] This value was used to normalise each nail and, if values of radioactivity were considered too high, then cells were rejected due to leaks. […]

[2] = pH of the agent solutions; assay type: physicochemical; conditions: for Mean pH: n = 3
[3] = Redox potential measurement against Ag/AgCl reference electrode; assay type: physicochemical; conditions: n = 3

SMILES: O=C(O)CS [Thioglycolic acid]
- permeation of 14C mannitol through full thickness human nail ([1]; Saturated TA (50%), rank among the enhancers (FIG. 2)): best penetration enhancer of mannitol
- permeation of 14C mannitol through full thickness human nail ([1]; TA 5%, compared to DTT (FIG. 2)): drop below that of the DTT
- Mean pH ([2]; 0.5M concentration): 2.13
- pH of solution prior to application ([2]; 5% concentration, solution applied to nail (FIG. 7)): 2.12
- Mean pH ([2]; TA concentration 0.001% w/w): 2.97
- Mean pH ([2]; TA concentration 0.005% w/w): 3.12
- Mean pH ([2]; TA concentration 0.01% w/w): 3.05
- Mean pH ([2]; TA concentration 0.05% w/w): 2.53
- Mean pH ([2]; TA concentration 0.1% w/w): 2.66
- Mean pH ([2]; TA concentration 1% w/w): 2.23
- Mean pH ([2]; TA concentration 2.5% w/w): 1.71
- Mean pH ([2]; TA concentration 5% w/w): 1.85
- Mean pH ([2]; TA concentration 7.5% w/w): 1.76
- Mean pH ([2]; TA concentration 10% w/w): 1.83
- Mean pH ([2]; TA concentration 20% w/w): 1.61
- Mean Redox Potential ([3]; 0.5M concentration): −132.8 mV
- Mean Redox Potential ([3]; 5% TA solution, approximate pH 2 (adjusted using NaOH)): −70.4
- Mean Redox Potential ([3]; 5% TA solution, approximate pH 3 (adjusted using NaOH)): −133.1
- Mean Redox Potential ([3]; 5% TA solution, approximate pH 4 (adjusted using NaOH)): −166.7
- Mean Redox Potential ([3]; 5% TA solution, approximate pH 5 (adjusted using NaOH)): −179.5
- Mean Redox Potential ([3]; 5% TA solution, approximate pH 6 (adjusted using NaOH)): −192.9
- Mean Redox Potential ([3]; 5% TA solution, approximate pH 8 (adjusted using NaOH)): −272.3
- Mean Redox Potential ([3]; 5% TA solution, approximate pH 10 (adjusted using NaOH)): −386.5
- Mean Redox Potential ([3]; 5% TA solution, approximate pH 11 (adjusted using NaOH)): −433.8
- Mean Redox Potential ([3]; TA concentration 0.001% w/w): −47.7
- Mean Redox Potential ([3]; TA concentration 0.005% w/w): −56.6
- Mean Redox Potential ([3]; TA concentration 0.01% w/w): −67.5
- Mean Redox Potential ([3]; TA concentration 0.05% w/w): −85.6
- Mean Redox Potential ([3]; TA concentration 0.1% w/w): −97.4
- Mean Redox Potential ([3]; TA concentration 1% w/w): −119.8
- Mean Redox Potential ([3]; TA concentration 2.5% w/w): −126.5
- Mean Redox Potential ([3]; TA concentration 5% w/w): −131.5
- Mean Redox Potential ([3]; TA concentration 7.5% w/w): −132.7
- Mean Redox Potential ([3]; TA concentration 10% w/w): −132.8
- Mean Redox Potential ([3]; TA concentration 20% w/w): −128.7
